Where “and” joins values, the source holds several entries; their conditions need not be identical. Equal entries are not always repeated.
Assays:
[1] = target: T1, ERBB4 receptor (Homo sapiens, UniProt Q15303); assay: Fluorescence-based competition binding assay with F-NRG1 (flow cytometry) on U2OS ERBB4/ERBB4 cells; details: for Fluorescence-based competition assay with NRG1 and EF-1 (normalized signal): individual replicates
T1 construct: host or cells: U2OS (osteosarcoma cells), PathHunter engineered line
T1 sequence (Q15303 26-1308): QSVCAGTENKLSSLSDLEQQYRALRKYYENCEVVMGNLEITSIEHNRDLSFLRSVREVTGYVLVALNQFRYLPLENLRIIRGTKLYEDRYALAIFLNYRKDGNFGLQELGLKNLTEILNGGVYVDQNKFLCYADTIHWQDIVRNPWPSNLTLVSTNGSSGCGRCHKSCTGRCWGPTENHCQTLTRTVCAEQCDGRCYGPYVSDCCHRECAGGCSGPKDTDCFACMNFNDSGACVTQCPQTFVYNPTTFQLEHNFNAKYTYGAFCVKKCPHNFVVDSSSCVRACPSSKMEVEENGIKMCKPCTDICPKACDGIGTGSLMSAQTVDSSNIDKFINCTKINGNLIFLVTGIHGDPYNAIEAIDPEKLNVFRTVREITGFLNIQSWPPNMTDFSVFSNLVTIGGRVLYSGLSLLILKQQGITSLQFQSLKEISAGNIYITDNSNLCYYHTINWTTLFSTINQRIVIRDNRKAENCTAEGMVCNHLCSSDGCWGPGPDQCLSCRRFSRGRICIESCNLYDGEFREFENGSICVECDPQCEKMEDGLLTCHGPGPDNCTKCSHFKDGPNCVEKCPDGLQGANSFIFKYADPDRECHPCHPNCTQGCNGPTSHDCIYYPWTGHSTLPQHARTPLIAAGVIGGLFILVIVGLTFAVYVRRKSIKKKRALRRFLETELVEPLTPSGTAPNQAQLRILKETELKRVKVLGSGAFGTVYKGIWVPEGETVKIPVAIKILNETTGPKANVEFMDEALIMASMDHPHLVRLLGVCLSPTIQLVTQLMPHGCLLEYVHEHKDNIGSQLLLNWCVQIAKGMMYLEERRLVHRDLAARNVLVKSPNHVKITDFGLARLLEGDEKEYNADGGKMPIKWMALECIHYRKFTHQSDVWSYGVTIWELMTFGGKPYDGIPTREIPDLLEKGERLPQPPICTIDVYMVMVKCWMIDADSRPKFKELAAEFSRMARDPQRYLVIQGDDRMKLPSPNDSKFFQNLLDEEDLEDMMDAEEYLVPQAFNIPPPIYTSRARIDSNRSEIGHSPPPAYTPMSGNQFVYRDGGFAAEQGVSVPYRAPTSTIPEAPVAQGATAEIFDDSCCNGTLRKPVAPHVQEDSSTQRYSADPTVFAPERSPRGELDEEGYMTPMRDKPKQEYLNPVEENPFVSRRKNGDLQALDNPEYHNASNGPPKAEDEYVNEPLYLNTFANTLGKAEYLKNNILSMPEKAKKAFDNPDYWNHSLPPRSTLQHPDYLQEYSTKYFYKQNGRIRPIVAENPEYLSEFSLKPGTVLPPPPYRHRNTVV
T1 sequence (Q15303 26-1308): as above
Protocol: NRG1 was dissolved in PBS at a concentration of 1 mg/mL and labeled with Alexa Fluor 488 using the Alexa Fluor 488 microscale protein labeling kit (Thermo Fisher Scientific, A30006). A Bio-gel P-4 (Bio-Rad, 1504124) fine resin suspended in PBS and a dye:protein molar ratio of 5 was used to purify the labeled NRG1 according to the manufacturer’s instructions. Fluorescent labeling was evaluated by performing a dose-response experiment using F-NRG1 (1–1000 nM) on the U2OS ERBB4/ERBB4 dimerization cell line. Next, the same cell line was used to perform a competition binding assay with F-NRG1 using flow cytometry. Cells were plated in transparent U-bottom 96-well plates (Greiner Bio-One, M9436) at 5 × 10^5 cells/mL in 50 μL ice-cold buffer (PBS with 0.1% bovine serum albumin (BSA; Sigma-Aldrich, A7906) and 0.05% sodium azide (Sigma-Aldrich, S2002)). Next, cells were centrifuged at 17,968 × g for 4 min at RT and the supernatants were discarded. The cell pellets were washed with 50 μL ice-cold buffer by gently pipetting up and down. Centrifugation and washing were repeated, and the supernatants were discarded. For the competition assay between NRG1 and F-NRG1, cells were treated with NRG1 (1–100 nM) and F-NRG1 (30 nM). […] After gentle mixing of each sample, the plate was incubated for 1 h at 4 °C on a microplate shaker. Next, the plate was centrifuged at 17,968 × g for 4 min at RT and the supernatants were discarded. The cells were then washed with 100 μL ice-cold buffer, pelleted by centrifugation and washed again. The supernatants were discarded and 100 μL ice-cold buffer was added to the cell pellets and pipetted up and down to generate single-cell suspensions. These suspensions were transferred to 5-mL polystyrene round-bottom tubes, kept on ice, and exposed to minimum light until flow cytometric analysis (BD Accuri C6, BD Biosciences). Unstained cells were used to set the parameters of the flow cytometer.
Supplementary Figure 3. Receptor binding assay. (a) Fluorescence-based competition assay between […]
The Y-axis represents the […]
percentage of specific binding of F-NRG1, the x-axis represents the molar concentration of unlabeled […]
(§1) (b) DRC showing t he effect of NRG1 (full line with full circle) on the […]
(§2) 1x10-6 M NRG1; n=5 biological replicates for NRG1 + EF -1 10 µM for all concentrations of NRG1, except […]
(§3) concentrations of NRG1, except n=2 for 3x10-7 M and 1x10-6 M NRG1). All data are presented as mean ± SD. Source data are provided as a Source Data file . CPD, compound; DRC; dose response curve; FC, fold change; F-NRG1, fluorescent ly labeled NRG1; M, molar concentration; NRG1, neuregulin-1; Veh, […]

[2] = target: T2, ERBB4/ERBB4 (Homo sapiens, UniProt Q15303); assay: NRG1 dose-response in ERBB4/ERBB4 dimerization assay with co-administration of EF-1; format: cell-based
T2 construct: host or cells: U2OS (osteosarcoma cells), PathHunter engineered line
T2 sequence (Q15303 26-1308): as above
T2 sequence (Q15303 26-1308): as above
Protocol: U2OS ERBB4/ERBB4 dimerization cells were seeded at a density of 5 × 10^4 cells/well in 100 µL Cell Plating 0 Reagent, in white 96-well plates (PerkinElmer, 6005680) and incubated for 24 h at 37 °C, 5% CO2. […] Next, 110 µL PathHunter Flash Detection Reagent was added to each well and incubated at RT for 1 h after which the luminescence signal was measured using the Luminoskan Ascent (Thermo Fisher Scientific). Dose-response curves of the compounds were performed in 2-fold (0.0625–32 µM). The same experimental set-up was used for the U2OS ERBB2/ERBB4, U2OS ERBB2/ERBB3 and U2OS ERBB1/ERBB1 dimerization cell lines. […]
as §1, §2, §3

[3] = test system: Akt phosphorylation (pAkt/Akt); assay: Western blot pAkt/Akt in iAMs; format: cell-based, rat; details: for pAkt/Akt, relative to vehicle of the same time point: EF-1 32 µM, iAMs, single replicates
Protocol: (§4) Hearts of the aforementioned transgenic mice were removed immediately after the animals had been killed. Cells and heart tissue were collected in RIPA lysis buffer (Thermo Fisher Scientific, 89900) supplemented with protease inhibitors (Merck, 11836153001) and phosphatase inhibitors (Merck, 4906845001) and the lysates were centrifuged at 14,000 × g for 10 min. The supernatants were collected, supplemented with sample buffer, and incubated at 95 °C for 5 min. Protein quantification was done with Pierce^TM BCA Protein Assay Kits (Thermo Fisher, 23227) according to the manufacturer’s instructions. Equal protein amounts of clarified lysates (20 µg) were subsequently separated by sodium dodecyl sulfate (SDS) polyacrylamide gel electrophoresis (165 V, 400 mA, 60 min) and transferred onto polyvinylidene fluoride membranes by electroblotting (100 V, 400 mA, 90 min). Next, the membranes were incubated for 1 h with Li-Cor blocking buffer (Li-Cor, 927-60001) at RT in Tris-buffered saline (TBS), supplemented with 0.1% Tween (BIO-RAD, 1706531). Next, primary antibodies were added (see below and Table 1a) in Li-Cor blocking buffer supplemented with 0.1% Tween, and the membranes were incubated overnight at 4 °C on a shaker. Following washing with TBS-0.1% Tween, the membranes were incubated for 1 h at RT with corresponding IRDye-conjugated secondary antibodies (See below and Table 1b) in Li-Cor blocking buffer supplemented with […] and 0.1% Tween. The membrane was visualized with the Odessey imaging system.

[4] = test system: ERK1/2 phosphorylation (pERK1/2/ERK1/2); assay: Western blot pERK1/2/ERK1/2 in iAMs; format: cell-based, rat; details: for pErk/Erk, relative to vehicle of the same time point: EF-1 32 µM, iAMs, single replicates
Protocol: as §4

O=C(NC1CC1)C(Sc1nc2ccccc2c(=O)n1C1CCCC1)c1ccccc1 (stereo not shown) [EF-1]
competition with F-NRG1 binding (in words) ([1]; EF-1 0.1–100 μM, 30 nM F-NRG1): did not reduce binding of F-NRG1 | Fluorescence-based competition assay with NRG1 and EF-1 (normalized signal) ([1]; concentration 100 pM): 100 | Fluorescence-based competition assay with NRG1 and EF-1 (normalized signal) ([1]; concentration 1e-7 M): 100 and 98 and 104 | Fluorescence-based competition assay with NRG1 and EF-1 (normalized signal) ([1]; concentration 1e-6 M): 102 and 93 and 105 | Fluorescence-based competition assay with NRG1 and EF-1 (normalized signal) ([1]; concentration 1e-5 M): 98 (2×) and 92 | Fluorescence-based competition assay with NRG1 and EF-1 (normalized signal) ([1]; concentration 0.0001 M): 94 (2×) and 95 | Chemiluminescence-based competition assay with NRG1 and EF-1, signal ([2]; EF-1 1 µM, NRG1 1e-11 M): 0 | Chemiluminescence-based competition assay with NRG1 and EF-1, signal ([2]; EF-1 1 µM, NRG1 3e-7 M): 96.5132 and 159.12 and 135.867 and 151.14 | Chemiluminescence-based competition assay with NRG1 and EF-1, signal ([2]; EF-1 1 µM, NRG1 1e-6 M): 151.834 and 150.068 and 166.317 | Chemiluminescence-based competition assay with NRG1 and EF-1, signal ([2]; EF-1 10 µM, NRG1 1e-11 M): 0 | Chemiluminescence-based competition assay with NRG1 and EF-1, signal ([2]; EF-1 10 µM, NRG1 3e-7 M): 204.858 and 319.881 and 318.093 and 238.507 | Chemiluminescence-based competition assay with NRG1 and EF-1, signal ([2]; EF-1 10 µM, NRG1 1e-6 M): 299.545 | potentiation of NRG1-induced ERBB4 homodimerization ([2]; EF-1 32 µM): 299.5% | Chemiluminescence-based competition assay with NRG1 and EF-1, signal ([2]; EF-1 32 µM, NRG1 1e-11 M): 0 | Chemiluminescence-based competition assay with NRG1 and EF-1, signal ([2]; EF-1 32 µM, NRG1 1e-7 M): 179.706 and 213.306 and 260.377 and 233.656 and 250.186 | Chemiluminescence-based competition assay with NRG1 and EF-1, signal ([2]; EF-1 32 µM, NRG1 3e-7 M): 277.077 and 253.156 | Chemiluminescence-based competition assay with NRG1 and EF-1, signal ([2]; EF-1 32 µM, NRG1 1e-6 M): 257.842 and 279.551 | time of peak Akt phosphorylation ([3]; EF-1): 2 h | pAkt/Akt, relative to vehicle of the same time point ([3]; 0 minutes): 0.748 and 0.7404 and 0.672 and 0.9718 | pAkt/Akt, relative to vehicle of the same time point ([3]; 15 minutes): 0.8783 and 0.9705 and 0.9844 and 0.887 | pAkt/Akt, relative to vehicle of the same time point ([3]; 60 minutes): 1.284 and 1.335 and 1.4576 and 1.506 | pAkt/Akt, relative to vehicle of the same time point ([3]; 120 minutes): 2.136 and 1.473 and 2.15 and 1.815 | pAkt/Akt, relative to vehicle of the same time point ([3]; 240 minutes): 2.021 and 1.657 and 2.184 and 2.136 | phosphorylation of Akt in iAMs (in words) ([3]; NRG1 10 nM or EF-1 32 µM): time-dependent phosphorylation of Akt | time of peak levels of ERK1/2 phosphorylation ([4]; EF-1): 15 min | pErk/Erk, relative to vehicle of the same time point ([4]; 0 minutes): 1.078 and 1.057 and 1.137 and 0.8985 | pErk/Erk, relative to vehicle of the same time point ([4]; 15 minutes): 1.66 and 1.416 and 1.274 and 1.578 | pErk/Erk, relative to vehicle of the same time point ([4]; 60 minutes): 1.162 and 1.018 and 1.18 and 0.9894 | pErk/Erk, relative to vehicle of the same time point ([4]; 120 minutes): 0.9869 and 1.003 and 0.9414 and 0.8187 | pErk/Erk, relative to vehicle of the same time point ([4]; 240 minutes): 0.9968 and 1.428 and 1.0991 and 0.9249 | phosphorylation of ERK1/2 in iAMs (in words) ([4]; NRG1 10 nM or EF-1 32 µM): transient phosphorylation of ERK1/2
